Source: patent publication US5594009A, “Fused pyrrolocarbazoles” (priority 1995, dated 1997)

B1: NT-3: Recombinant rat NT-3 produced by using a recombinant baculovirus expression vector (protein, UniProt P18280 140-258, looked up)
Neurotrophin-3: YAEHKSHRGEYSVCDSESLWVTDKSSAIDIRGHQVTVLGEIKTGNSPVKQYFYETRCKEARPVKNGCRGIDDKHWNSQCKTSQTYVRALTSENNKLVGWRWIRIDTSCVCALSRKIGRT
modifications: baculovirus-expressed
notes: Recombinant rat NT-3 produced by using a recombinant baculovirus expression vector

Tests used:
[1] = biological target: protein kinase C; experiment: PKC Activity Inhibition Assay; assay type: biochemical
Protocol: Fused pyrrolocarbazoles inhibited the activity of protein kinase C (Table VI). The protein kinase C assay has been disclosed (Murakata et al., U.S. Pat. No. 4,923,986; Kikkawa et al., J. Biol. Chem. 257:13341-13348 (1982)). The assay was performed with several concentrations of fused pyrrolocarbazoles. The concentration at which protein kinase C was 50% inhibited (IC50) was determined.

[2] = system: chick DRG neurons; experiment: DRG Neuron Survival Assay (calcein AM); assay type: cell-based; conditions: 48 hours; for viability at 0.1 µM / viability at 0.25 µM / viability at 0.5 µM: Gallus gallus, DRG neuron, read-out: Neuronal Survival (% of Control); for viability at 0.25 µM: 250 nM; for viability at 0.5 µM: 500 nM
Protocol: Fused pyrrolocarbazoles promoted dorsal root ganglion (DRG) neuronal survival in cultures of chick DRG neurons. Cell survival was measured by uptake of calcein AM, an analog of the viable dye, fluorescein diacetate. Calcein is taken up by viable cells and cleaved intracellularly to fluorescent salts which are retained by intact membranes of viable cells. Microscopic counts of viable neurons correlate directly with relative fluorescence values obtained with the fluorimetric viability assay. This method thus provides a reliable and quantitive measurement of cell survival in the total cell population of a given culture (Bozyczko-Coyne et al., J. Neur. Meth. 50:205-216, 1993).
Methods: Dorsal root ganglia were dissected from embryonic age day 9 chick embryos and dissociated cells prepared by subsequent Dispase (neutral protease, Collaborative Research) dissociation. Neurons were seeded at low density (3×10^4 cells/cm^2) into 96 well poly-L-ornithine and laminin coated plates. Cells were cultured for 48 hours in serum-free N2 medium (Bottenstein and Sato, 1979) at 37° C. in a humidified atmosphere, 5% CO2 /95% air. Cell survival was assessed at 48 hours using the viable fluorimetric assay described above.

[3] = system: ChAT activity of basal forebrain cultures; experiment: Basal Forebrain ChAT Activity Assay; assay type: cell-based, rat; conditions: for activity at 0.25 µM: 250 nM
Protocol: Fused pyrrolocarbazoles were tested for the ability to increase ChAT activity of basal forebrain cultures.
Methods: The basal forebrain was dissected from rat embryos (day 17 or 18 embryos) and the cells were dissociated with a neutral protease (Dispase™, Collaborative Research). Neurons were plated at a density of 5×10^4 cells/well (1.5×10^5 cells/cm^2) in poly-1-ornithine and laminin coated plates. Cells were cultured in serum-free N2 medium containing 0.05% BSA at 37° C. in a humidified atmosphere, 5% CO2 /95% air. ChAT activity was assessed 5 days after plating by using the ChAT assay as described in Example III(A)(1).

[4] = biological target: trkA tyrosine kinase (Homo sapiens, UniProt P04629); experiment: trkA Tyrosine Kinase Activity Inhibition Assay (ELISA); assay type: biochemical; conditions: 16 μM ATP, 37° C., 15 min; read-out: INHIBITION OF trkA KINASE IC50
trkA tyrosine kinase, sequence (P04629 33-796): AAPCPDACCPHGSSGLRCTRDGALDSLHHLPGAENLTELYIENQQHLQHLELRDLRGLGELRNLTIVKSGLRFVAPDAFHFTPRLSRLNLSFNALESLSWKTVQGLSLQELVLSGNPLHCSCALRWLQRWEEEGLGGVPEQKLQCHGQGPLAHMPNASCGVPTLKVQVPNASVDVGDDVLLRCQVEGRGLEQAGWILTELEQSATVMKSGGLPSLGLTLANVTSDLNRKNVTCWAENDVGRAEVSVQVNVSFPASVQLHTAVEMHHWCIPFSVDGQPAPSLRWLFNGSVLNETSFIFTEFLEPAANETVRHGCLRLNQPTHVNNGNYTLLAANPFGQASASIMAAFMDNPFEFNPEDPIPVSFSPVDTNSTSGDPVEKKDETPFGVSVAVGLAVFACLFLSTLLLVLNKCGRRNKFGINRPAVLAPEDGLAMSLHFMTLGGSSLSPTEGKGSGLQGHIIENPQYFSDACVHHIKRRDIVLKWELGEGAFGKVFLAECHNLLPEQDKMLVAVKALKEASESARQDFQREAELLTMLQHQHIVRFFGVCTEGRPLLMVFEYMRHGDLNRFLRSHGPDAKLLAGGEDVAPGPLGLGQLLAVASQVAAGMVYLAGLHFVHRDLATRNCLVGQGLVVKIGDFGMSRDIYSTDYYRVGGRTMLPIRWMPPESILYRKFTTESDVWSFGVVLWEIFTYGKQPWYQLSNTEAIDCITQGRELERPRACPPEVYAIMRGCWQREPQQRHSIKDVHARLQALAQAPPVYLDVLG
Protocol: These compounds were then tested for the ability to inhibit substrate phosphorylation by the trkA tyrosine kinase.
Plates were washed three times with TBST, followed by two washes with TBS (TBST sans Tween-20). Fused pyrrolocarbazoles were then added at various concentrations to a reaction mixture (50 mM HEPES, pH 7.4, 5 mM MnCl2, 5 mM MgCl2, 140 mM NaCl, 16 μM ATP, and 15 ng trkA in a total volume of 1001 μL.). As a negative control, 100 mM EDTA was included in the reaction solution. The plates were then incubated at 37° C. for 15 min. The detection antibody, monoclonal anti-phosphotyrosine antibody (UBI), was added at a dilution of 1:2000 in TBST, and incubated for 1 hour at 37° C. Plates were then washed three times with TBST, followed by a 1 hour incubation at 37° C. with alkaline phosphatase-labeled goat anti-mouse IgG (1:2000 in TBST (Bio-Rad)). After washing three times with TBST followed by two washes with TBS, a colored product was produced by using NADPH as substrate for alkaline phosphatase, and the coupled reactions of diaphorase and alcohol dehydrogenase (GIBCO-BRL ELISA amplification system). The colored product was read at 490 nm in a microplate reader (Biotek).

[5] = system: choline acetyltransferase (ChAT) activity in dissociated rat embryonic spinal cord culture; experiment: Spinal Cord ChAT Activity Assay; assay type: cell-based; conditions: ChAT measured after 48 hours
Protocol: In these assays, a fused pyrrolocarbazole was directly added to a dissociated spinal cord culture. […] The fused pyrrolocarbazole was added on the same day the dissociated spinal cord cell culture was initiated.
Methods: Fetal rat spinal cord cells were dissociated, and experiments were performed as described (Smith et al., J. Cell Biology., 101:1608-1621 (1985); Glicksman et al., J. Neurochem. 61:210-221 (1993)). Dissociated cells were prepared from spinal cords dissected from rats (embryonic day 14-15) by standard trypsin dissociation techniques (Smith et al., J. Cell Biology 10:1608-1621 (1985)). Cells were plated at 6×10^5 cells/cm^2 on poly-1-ornithine coated plastic tissue culture wells in serum-free N2 medium supplemented with 0.05% bovine serum albumin (BSA) (Bottenstein et al., PNAS USA 514-517 (1979)). Cultures were incubated at 37° C. in a humidified atmosphere of 5% CO2 /95% air for 48 hours. ChAT activity was measured after 2 days it vitro using a modification of the Fonnum procedure (Fonnum, J. Neurochem. 24:407-409 (1975)) according to McManaman et al. and Glicksman et al. (McManaman et al., Developmental Biology 125:311-320 (1988); Glicksman et al., J. Neurochem. 61:210-221 (1993)).

[6] = system: NT-3 induced ChAT activity of rat basal forebrain cultures; experiment: Enhancement of Neurotrophin (NT-3) Activity Assay, ChAT activity in basal forebrain cultures; assay type: cell-based; conditions: for ChAT activity in the absence of NT-3: compound added alone to basal forebrain neurons, no NT-3; for ChAT activity in the presence of NT-3: with 100 ng/ml NT-3
Protocol: Fused pyrrolocarbazoles were tested for the ability to enhance the activity of the neurotrophin NT-3 in basal forebrain cultures. ChAT activity was assayed as a measure of cholinergic neuron function and survival. The concentration of NT-3 (100 ng/ml) used in these experiments increased ChAT activity over control cultures (untreated with NT-3 or a fused pyrrolocarbazole) by 140%.
Methods. Basal forebrain cultures were prepared from embryonic rats (embryonic day 17) and dissociated with the neutral protease Dispase™. Cells were plated at a density of 4×10^5 cells/cm^2 on poly-1-ornithine coated plastic tissue culture plates in a mixture of DMEM and F12 media (50/50 v/v GIBCO) supplemented with 5% horse serum and 0.5% fetal bovine serum. Cells were incubated at 37° C. in a humidified atmosphere of 5% CO2 /95% air for 5 days. ChAT activity was measured as described in Example III(A)(1).
Recombinant rat NT-3 was produced by using a recombinant baculovirus expression vector under the control of the polyhedron virus promoter (Fraser, In Vitro Cell. and Dev. Biol. 25:225-235 (1989)). The plasmid pXM-NT3 (Hallbook et al., Neuron 6:845-858 (1991), which contained the rat NT-3 cDNA clone, was provided by Dr. Ira Black (University of Medicine and Dentistry of New Jersey, Piscataway, N.J.). NT-3 cDNA was subcloned into the transfer vector pVL1392 (In Vitrogen Corp., San Diego, Calif.) for recombinant virus production. Recombinant baculovirus was produced as described in Meyer et al. (Meyer at al., J. Neurochem 62:825-833 (1994)).

[7] = system: lumbar motoneurons of chick embryos; experiment: Inhibition of Motoneuron Death In Ovo; assay type: in vivo; conditions: for % of motoneurons rescued versus control / Number of motoneurons mean ± SD: E6-E9; for Number of motoneurons mean ± SD: one side of spinal cord
Protocol: The samples (50 ul) were applied to the vascularized chorioallantoic membrane through a window in the egg shell as previously described (Oppenheim et al., 1988). Embryos were sacrificed on E10 and spinal cords were removed, fixed in Carnoy's solution (10% acetic acid, 60% ethanol, 30% chloroform), embedded in paraffin, sectioned at 8 um, and stained with thionin as described previously (Oppenheim et al., 1988). Motoneurons (identified by morphology and position) were counted by an individual blind to the treatment conditions in every tenth section according to previously established criteria (Oppenheim et al., 1982, Oppenheim, 1986).

[8] = Rattus norvegicus, 120 h, read-out: ChAT Activity (% of Control)

Molecule	IC50 [1] [nM]	viability at 0.25 µM [2] [%]	viability at 0.5 µM [2] [%]	IC50 [4] [nM]	Spinal Cord ChAT Activity, % of Control, untreated cultures [5]	further results
O=C1NCc2c1c1c(c3[nH]c4ccc(F)cc4c23)Cc2ccccc2-1 [Compound I-12, 3-Fluoro-5H, 6H, 12H, 13H-indeno[2,3-a]pyrrolo[3,4-c]carbazole-7(7H)one]	85	165	178	26.7	173 % of Control	viability at 0.1 µM ([2]; 100 nM): 126%; activity at 0.1 µM ([3]; Rattus norvegicus, 120 h, 100 nM, read-out: ChAT Activity (% of Control)): 279%; activity at 0.25 µM [3, 8]: 389%
O=C1NC(=O)c2c1c1c(c3[nH]c4ccc(Br)cc4c23)Cc2ccccc2-1 [Compound I-6, 3-Bromo-6H, 12H, 13H-indeno[2,3-c]pyrrolo[3,4-c]carbazole-5,7(5H, 7H),-dione]	1000	–	–	–	209 % of Control	ChAT activity in the absence of NT-3 [6]: no effect on ChAT activity; ChAT activity in the presence of NT-3 [6]: enhanced ChAT activity
O=C1NCc2c1c1c(c3[nH]c4ccccc4c23)CCc2ccccc2-1 [Compound I-17, 12,13-Dihydro-5H, 6H, 14H-naphthy[3,4-a]pyrrolo[3,4-c]carbazole-7(7H)one]	1000	–	–	66	197 % of Control	–
O=C1NCc2c1c1c(c3[nH]c4ccc(F)cc4c23)CCc2ccccc2-1 [Compound I-22, 12,13-Dihydro-3-fluoro-5H, 6H, 14H-naphthyl[3,4-a]pyrrolo[3,4-c]carbazole-7(7H)one]	250	–	–	–	143 % of Control	–
O=C1NCc2c1c1c(c3[nH]c4ccc(CCc5ccccn5)cc4c23)Cc2ccccc2-1 [Compound I-34]	–	203	207	–	254 % of Control	viability at 0.1 µM ([2]; 100 nM): 159%; ChAT Activity (% of Control) ([3]; 100 nM): inactive; ChAT Activity (% of Control) ([3]; 500 nM): inactive; ChAT Activity (% of Control) ([3]; 1000 nM): inactive; activity at 0.25 µM [3, 8]: 192%; % of motoneurons rescued versus control ([7]; 0.015 ug/egg daily): 11%; Number of motoneurons mean ± SD ([7]; 0.015 ug/egg daily): 10480 ± 585; % of motoneurons rescued versus control ([7]; 0.15 ug/egg daily): 7%; Number of motoneurons mean ± SD ([7]; 0.15 ug/egg daily): 10135 ± 354; % of motoneurons rescued versus control ([7]; 0.3 ug/egg daily): 23%; Number of motoneurons mean ± SD ([7]; 0.3 ug/egg daily): 11593 ± 654; % of motoneurons rescued versus control ([7]; 0.6 ug/egg daily): 27%; Number of motoneurons mean ± SD ([7]; 0.6 ug/egg daily): 11976 ± 1106; increase in motoneuron survival in treated vs. control embryos, maximal effect ([7]; 0.6 ug/egg, vehicle-treated control): 27%; number of surviving lumbar motoneurons / naturally occurring motoneuron death (in words) ([7]; daily application to chorioallantoic membrane, E6 to E9): dose-dependent increase in the number of surviving lumbar motoneurons; dose at which the maximal effect was achieved ([7]; daily dose): 0.6 ug/egg
O=C1NCc2c3c(c4[nH]c5ccc(F)cc5c4c21)Cc1ccccc1-3 [Compound I-23, 3-Fluoro-6H, 7H, 12H, 13H -indeno[2,3-a]pyrrolo[3,4-c]carbazole-5(5H)one]	60	128	135	70.6	208 % of Control	Neuronal Survival (% of Control) ([2]; 100 nM): inactive
C=CCn1c2ccccc2c2c3c(c4c(c21)Cc1ccccc1-4)C(=O)NC3 [Compound I-26, 13-Allyl-5H,6H,12H-indeno[2,3-a]pyrrolo[3,4-c]carbazole-7(7H)one]	300	–	–	–	167 % of Control	–
O=C1NC(=O)c2c1c1c(c3[nH]c4cc(Cl)ccc4c23)Cc2ccccc2-1 [Compound Ia-1, 2-Chloro-6H , 12H, 13H-indeno[2,3a]pyrrolo[3,4-c]carbazole-5,7(5H, 7H)-dione]	–	–	–	–	139 % of Control	ChAT activity in the absence of NT-3 [6]: no effect on ChAT activity; ChAT activity in the presence of NT-3 [6]: enhanced ChAT activity
O=C1NCc2c3c(c4[nH]c5ccccc5c4c21)CCc1ccccc1-3 [Compound I-16, 12,13-dihydro-6H, 7H, 14H-naphthyl[3,4-a]pyrrolo[3,4-c]carbazole-5(5H)one]	35	–	–	–	142 % of Control	–
B1	–	–	–	–	–	increase of ChAT activity over control cultures ([6]; NT-3 100 ng/ml, control untreated with NT-3 or fused pyrrolocarbazole): 140%
